Active and inactive are the calls of the source.
Assays:
[1] = target: Potassium voltage-gated channel subfamily KQT member 2 (Mus musculus, UniProt Q9Z351); assay: Induction of mouse KCNQ2 expressed in HEK293 cells at -40 mV holding potential by whole-cell patch clamp assay; format: cell-based
[2] = target: Potassium voltage-gated channel subfamily KQT member 2 (Mus musculus) (UniProt Q9Z351); assay: Induction of mouse KCNQ2 expressed in HEK293 cells at -40 mV holding potential by whole-cell patch clamp assay relative to (+/-)-N-(1-(benzo[d][1,3]dioxol-5-yl)ethyl)-3-(2-chlorophenyl)acrylamide; format: cell-based
Chain of Potassium voltage-gated channel subfamily KQT member 2 (Mus musculus) (Q9Z351 whole entry): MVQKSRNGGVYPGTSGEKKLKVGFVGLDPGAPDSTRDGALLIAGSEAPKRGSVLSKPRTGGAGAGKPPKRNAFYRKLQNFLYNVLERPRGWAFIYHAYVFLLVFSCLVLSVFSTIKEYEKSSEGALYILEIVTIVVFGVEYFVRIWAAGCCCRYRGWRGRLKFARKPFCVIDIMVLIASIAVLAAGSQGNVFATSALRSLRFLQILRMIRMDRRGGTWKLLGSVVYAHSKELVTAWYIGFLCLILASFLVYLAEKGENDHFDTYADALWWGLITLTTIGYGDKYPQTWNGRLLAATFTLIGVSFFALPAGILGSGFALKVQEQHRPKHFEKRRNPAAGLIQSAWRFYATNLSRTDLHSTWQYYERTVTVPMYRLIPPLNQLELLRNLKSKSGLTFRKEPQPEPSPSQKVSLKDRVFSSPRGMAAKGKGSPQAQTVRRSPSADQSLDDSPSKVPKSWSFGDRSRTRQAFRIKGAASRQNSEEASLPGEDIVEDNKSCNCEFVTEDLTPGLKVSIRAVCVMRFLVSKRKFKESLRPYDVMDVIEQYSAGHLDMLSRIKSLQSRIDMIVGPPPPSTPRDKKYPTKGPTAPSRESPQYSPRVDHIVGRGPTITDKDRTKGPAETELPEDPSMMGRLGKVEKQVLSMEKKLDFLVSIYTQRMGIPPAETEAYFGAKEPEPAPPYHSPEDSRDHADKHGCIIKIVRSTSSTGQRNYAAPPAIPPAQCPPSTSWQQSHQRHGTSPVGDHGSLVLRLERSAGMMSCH

Rattus norvegicus [3] = assay: Toxicity in Sprague-Dawley rat assessed as […] at 10 mg/kg, iv after 10 mins by rotorod test; format: organism-based; design: dose 10 mg/kg, route intravenous; conditions: in vivo
Rattus norvegicus [4] = assay: Analgesic activity in rat assessed reduction formalin-induced second phase pain response at 10 mg/kg, iv administered 8 mins post formalin challenge; format: functional, organism-based; design: dose 10 mg/kg
Rattus norvegicus [5] = assay: Analgesic activity in rat assessed reduction formalin-induced initial pain response at 10 mg/kg, iv administered 2 mins before formalin challenge; format: functional, organism-based; design: dose 10 mg/kg
Rattus norvegicus [6] = assay: Analgesic activity in STZ-induced diabetic neuropathy rat model assessed as prolongation of reversal of hypersensitivity time at 3 mg/kg, iv measured after 15 to 90 mins relative to vehicle-treated control; format: functional
[7] = Drug uptake in Sprague-Dawley rat brain at 1 mg/kg, iv measured after 1 hr; format: ADME, organism-based; design: dose 1 mg/kg, route intravenous; conditions: read-out: Drug uptake
[8] = Drug uptake in Sprague-Dawley rat brain at 1 mg/kg, iv measured after 15 mins; format: ADME, organism-based; design: dose 1 mg/kg, route intravenous; conditions: read-out: Drug uptake
Rattus norvegicus [9] = assay: Analgesic activity in Sprague-Dawley rat L5/L6 spinal nerve injury Chung model of neuropathic pain assessed as […] hair-induced paw withdrawal threshold at 3 mg/kg, iv measured after 15 to 90 mins relative to vehicle-treated control; format: functional, organism-based; design: dose 3 mg/kg
Rattus norvegicus [10] = assay: Analgesic activity in Sprague-Dawley rat L5/L6 spinal nerve injury Chung model of neuropathic pain assessed as […] hair-induced paw withdrawal threshold at 10 mg/kg, iv measured after 15 mins relative to vehicle-treated control; format: functional, organism-based; design: dose 10 mg/kg
[11] = target: Potassium voltage-gated channel subfamily KQT member 2 (Mus musculus) (UniProt Q9Z351); assay: Induction of mouse KCNQ2 expressed in HEK293 cells at -40 mV holding potential by whole-cell patch clamp assay relative to retigabine; format: cell-based
Rattus norvegicus [12] = assay: Analgesic activity in rat assessed reduction formalin-induced second phase pain response at 100 mg/kg, iv administered 8 mins post formalin challenge; format: functional, organism-based; design: dose 100 mg/kg
Rattus norvegicus [13] = assay: Analgesic activity in rat assessed reduction formalin-induced initial pain response at 100 mg/kg, iv administered 2 mins before formalin challenge; format: functional, organism-based; design: dose 100 mg/kg
Rattus norvegicus [14] = assay: Analgesic activity in Sprague-Dawley rat L5/L6 spinal nerve injury Chung model of neuropathic pain assessed as […] hair-induced paw withdrawal threshold at 100 mg/kg, iv measured after 15 to 90 mins relative to vehicle-treated control; format: functional, organism-based; design: dose 100 mg/kg

Chain of Potassium voltage-gated channel subfamily KQT member 2 (Q9Z351 whole entry): as above

With `C[C@@H](NC(=O)/C=C/c1cc(F)ccc1F)c1cccc(Oc2ccncc2)c1` the EC50 [1] was over 10000 nM.
With `C[C@H](NC(=O)/C=C/c1ccccc1)c1cccc(N2CCOCC2)c1` the Ratio [2] was 1.4.
Compound `C[C@H](NC(=O)/C=C/c1ccccc1F)c1cccc(-c2ccc(F)nc2)c1` has a Ratio [2] of 0.85.
For `C[C@H](NC(=O)/C=C/c1ccccc1F)c1cccc(Oc2cccnc2)c1`, the Activity (Rattus norvegicus [3]) was “Non-toxic”, the Activity (Rattus norvegicus [4]) was “Active” and the Activity (Rattus norvegicus [5]) was “Active”. It also gave a Time (Rattus norvegicus [6]) of 15 min, a concentration at 1 h [7] of 560 nM and a concentration at 0.25 h [8] of 2000 nM. For the same compound, the Activity (Rattus norvegicus [9]) was “inactive”, the Activity (Rattus norvegicus [10]) was “Active” and the Efficacy [11] was 38%. The Ratio [2] was 2.2 and the EC50 [1] was 2.4 nM.
`C[C@@H](NC(=O)/C=C/c1ccccc1F)c1cccc(Oc2cccnc2)c1` gave an EC50 [1] of over 10000 nM.
For `C[C@H](NC(=O)/C=C/c1ccccc1F)c1ccc2c(c1)N(CC1CC1)CCO2`, the Ratio [2] was 1.8.
With `C[C@H](NC(=O)/C=C/c1ccccc1Cl)c1ccc2c(c1)OCO2` the Ratio [2] was 1.1.
With `NCC1(CC(=O)O)CCCCC1` the Activity (Rattus norvegicus [12]) was “Active”, the Activity (Rattus norvegicus [13]) was “inactive” and the Activity (Rattus norvegicus [14]) was “Active”.
`CCOC(=O)Nc1ccc(NCc2ccc(F)cc2)cc1N` gave a Ratio [2] of 1.6.
For `C[C@H](NC(=O)/C=C/c1cc(F)ccc1F)c1cccc(Oc2ccncc2)c1`, the concentration at 1 h [7] was 42 nM, the concentration at 0.25 h [8] was 160 nM and the Activity (Rattus norvegicus [10]) was “Active”. For the same compound, the Ratio [2] was 2.9 and the EC50 [1] was 0.9 nM.

From ChEMBL document CHEMBL2439980, “Discovery of (S,E)-3-(2-fluorophenyl)-N-(1-(3-(pyridin-3-yloxy)phenyl)ethyl)-acrylamide as a potent and efficacious KCNQ2 (Kv7.2) opener for the treatment of neuropathic pain” (Bioorg Med Chem Lett, 2013)
